In patent publication US20240109937A1, “BINDING PEPTIDES AND USES THEREOF” (The Johns Hopkins University, priority 2021, published 2024):

Assays:
[1] = molecular target: T1, CAPN1 (Mus musculus, UniProt O35350); experiment: Calpain activity assay (Suc-LLVY-AMC cleavage) in HL-1 cells under Ca2+ overload; assay type: cell-based; conditions: Calcimycin 1 μM in HBS KV medium, dose-dependent response
T1 construct: endogenous in cells; host or cells: HL-1 cardiomyocytes
T1 sequence (O35350 1-713): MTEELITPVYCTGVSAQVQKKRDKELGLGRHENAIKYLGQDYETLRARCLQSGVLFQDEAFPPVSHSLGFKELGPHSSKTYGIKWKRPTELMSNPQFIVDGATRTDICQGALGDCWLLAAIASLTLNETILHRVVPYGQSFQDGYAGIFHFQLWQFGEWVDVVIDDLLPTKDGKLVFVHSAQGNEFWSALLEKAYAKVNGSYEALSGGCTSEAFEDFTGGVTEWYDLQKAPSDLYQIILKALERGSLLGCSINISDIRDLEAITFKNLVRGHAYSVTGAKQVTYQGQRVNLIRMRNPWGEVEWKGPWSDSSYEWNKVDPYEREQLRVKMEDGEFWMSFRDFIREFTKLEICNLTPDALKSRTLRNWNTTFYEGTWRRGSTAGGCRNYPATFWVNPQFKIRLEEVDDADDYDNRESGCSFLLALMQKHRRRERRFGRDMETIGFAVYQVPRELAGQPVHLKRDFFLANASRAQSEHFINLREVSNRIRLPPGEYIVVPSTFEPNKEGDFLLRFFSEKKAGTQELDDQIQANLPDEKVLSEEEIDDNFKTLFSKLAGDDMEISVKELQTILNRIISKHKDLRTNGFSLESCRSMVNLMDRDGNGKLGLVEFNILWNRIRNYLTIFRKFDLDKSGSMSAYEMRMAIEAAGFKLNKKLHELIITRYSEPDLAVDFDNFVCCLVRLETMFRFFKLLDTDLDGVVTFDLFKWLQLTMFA
T1 sequence (O88456 1-268 partner): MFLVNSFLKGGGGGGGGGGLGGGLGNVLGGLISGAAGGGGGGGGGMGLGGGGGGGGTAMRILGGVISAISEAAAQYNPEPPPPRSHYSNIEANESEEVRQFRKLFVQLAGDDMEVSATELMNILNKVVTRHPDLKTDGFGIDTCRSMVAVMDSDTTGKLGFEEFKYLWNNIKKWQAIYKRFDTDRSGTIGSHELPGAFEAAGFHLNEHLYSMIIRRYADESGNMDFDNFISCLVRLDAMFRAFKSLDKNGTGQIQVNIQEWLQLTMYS
Method: Calcium (Ca^2+) Overload Protocol: Rapid and sustained intracellular Ca^2+ overload was obtained by adding the Ca^2+-ionophore, calcimycin (1 μM), to HL-1 cells incubated for 10 min in HBS KV medium (1.26 mM CaCl2, 0.81 mM MgSO4, 0.44 mM KH2PO4, 142 mM KCl, 0.27 mM K2HPO4, 5.55 mM D-glucose, 1 mM Na3VO4, 20 mM Hepes pH 7.4). To monitor intracellular Ca^2+ variations, HL-1 cells were loaded with 5 μM Fluo-4 FF AM (Molecular Probes) in HBS Na (Sigma) for 30 min before the media was replaced with HBS KV. […] Calpain (CAPN) Activity Assay: […] HL-1 cells were grown in 24-well plates and incubated for 30 min in HBS Na (Sigma) with 25 μM Suc-LLVY-AMC (SEQ ID NO: 81) and 0.01% pluronic F127 (Molecular Probes) before treatment protocols. […] CAPN activity was inhibited via the addition of either calpeptin (Tocris) or PD150606 (Calbiochem) in the incubation medium.

[2] = molecular target: T1, CAPN1; experiment: Western blot of CAPN1 in purified mitochondria from HL-1 cells under Ca2+ overload; assay type: cell-based; conditions: Ca2+ overload (HBS KVC), calpeptin 50 μM, PD150606 10 μM
Method: Calcium (Ca^2+) Overload Protocol: Rapid and sustained intracellular Ca^2+ overload was obtained by adding the Ca^2+-ionophore, calcimycin (1 μM), to HL-1 cells incubated for 10 min in HBS KV medium (1.26 mM CaCl2, 0.81 mM MgSO4, 0.44 mM KH2PO4, 142 mM KCl, 0.27 mM K2HPO4, 5.55 mM D-glucose, 1 mM Na3VO4, 20 mM Hepes pH 7.4). To monitor intracellular Ca^2+ variations, HL-1 cells were loaded with 5 μM Fluo-4 FF AM (Molecular Probes) in HBS Na (Sigma) for 30 min before the media was replaced with HBS KV. The fluorescence was recorded using a fluorimeter plate reader (Fluoroskan Ascent Labsystem) at wavelength settings of 485/530 nm for excitation/emission, respectively.
Mitochondria Isolation Protocol: Mitochondria were isolated from HL-1 cells in percoll density gradient. Briefly, 30×10^6 adherent cells were harvested with Trypsin/EDTA, centrifuged at 500×g for 10 min, washed in buffer A (100 mM sucrose, 1 mM EGTA, 20 mM MOPS, pH 7.4, and 1 mg/mL BSA) before cell disruption with a Dounce homogenizer. The suspension was centrifuged twice at 500× g for 5 min and the resulting supernatant at 10,000×g for 10 min at 4° C. The pellet was re-suspended in buffer B (300 mM sucrose, 1 mM EGTA, 20 mM MOPS pH 7.4, 1 mg/mL BSA), and the homogenate was layered on a two-phase (25% and 40%) percoll density gradient. […]

[3] = test system: cleaved (75 kDa) CAPN1; experiment: Immunoblot of active CAPN1 in ISO/Ca2+-treated ES-CMs (chronic CAPN1 inhibition); assay type: cell-based, mouse; conditions: Dsg2^mut/mut ES-CMs, 7 days 50 μM ISO/1 μM Ca2+, calpeptin pretreatment
Method: Mouse embryonic stem cells (ESs) were maintained and differentiated, and the absence of mycoplasma contamination was confirmed prior to experimental studies. Briefly, mouse ESs from both WT and Dsg2^mut/mut mice were derived from E3.5 embryos and maintained on gelatin-coated dishes in maintenance medium (Glasgow minimum essential medium supplemented with 10% fetal bovine serum and 3 μM Chir99021 and 1 μM PD98059 or 1000 U/ml ESGRO; Millipore), Glutamax, sodium pyruvate, and MEM non-essential amino acids (Thermo Fisher Scientific). For cardiomyocyte (CM) differentiation, ESs were plated in IMDM/Ham's F12 (Cellgro, at 3:1) supplemented with N2, B27, penicillin/streptomycin, 2 mM GlutaMAX, 0.05% BSA, 5 ng/ml L-ascorbic acid (Sigma-Aldrich), and α-monothioglycerol (MTG; Sigma-Aldrich) at a final density of 100,000 cells/ml to allow spheroid formation. After 48 hours, embryoid bodies were collected and transferred to ultra-low attachment plastic surface and induced for 40 hours with Activin A and Bmp4 (R&D Systems). Cells were then dissociated and plated as monolayers for 48 hours in the presence of 10 μM XAV to allow cardiomyocyte differentiation. The resulting ES-CMs were cultured 45 days before experimental procedures were performed.

reduction in Ca2+ overload-induced CAPN1 substrate hydrolysis [1]: ~75%
mitochondrial CAPN1 translocation [2]: failed to prevent
SMILES: CCCC[C@@H](C=O)NC(=O)[C@H](CC(C)C)NC(=O)OCc1ccccc1 [calpeptin]
levels of cleaved (75 kDa) CAPN1 [3]: significantly lowered
